Reference: ChEMBL document CHEMBL4715734, “Discovery of the Potent and Selective M1 PAM-Agonist N-[(3R,4S)-3-Hydroxytetrahydro-2H-pyran-4-yl]-5-methyl-4-[4-(1,3-thiazol-4-yl)benzyl]pyridine-2-carboxamide (PF-06767832): Evaluation of Efficacy and Cholinergic Side Effects” (J Med Chem, 2016)

Assay: Toxicity in dog assessed as induction of loose stool at 0.3 mg/kg, po using spray-dried dispersion formulation
Assay type: organism-based, Canis lupus familiaris
Conditions: in vivo

In the case of `Cc1cnc(C(=O)N[C@H]2CCOC[C@@H]2O)cc1Cc1ccc(-c2cscn2)cc1`, the Activity is reported as “Toxic”.
